Values joined by “and” are separate entries in the source; they are usually repeats but may differ in a detail not shown here. Identical values can stand only once.
Experiments:
[1] = tested on: NQO1 activation in BEAS-2B cells; experiment: BEAS-2B cellular MTT assay of NQO1 activation, 0% HSA; assay type: cell-based
Procedure: (§1) The growth rate of the BEAS-2B cells changed based on the lot of BEGM SingleQuots in the BEGM media. The cell growth rate was determined for each lot of SingleQuots. Ideally, cells were thawed into media with the new lot of SingleQuots and grown for two passages before testing; however, growing an active culture in the new lot of media for two to three passages before testing was also acceptable. Until the cell growth rate was determined, cells were seeded at different densities (cells/cm^2) in multiple tissue culture flasks in order to avoid the cells becoming more than 70% confluent. Cells should not go above 70% confluent as the cells differentiate when they become confluent. After the cells were grown in the new lot of media as described above, the number of cells per well needed to seed in the collagen plates was determined by seeding different numbers of cells per well and incubating for 48 hours. Cell confluency was checked after 48 hours and a cell number that results in just below to just above confluency was chosen for future plate seeding. Cell confluency in the assay plate was 95-100% confluent after 48 hours.
(§2) Cell media consists of BEBM basal media with the BEGM SingleQuots added. SingleQuots vials were thawed in the tissue culture hood, and GA-1000 (Gentamicin-Amphotericin) was not added.
(§3) If complete media was to be used immediately, BEBM basal media was warmed to room temperature in the hood, but not as high as 37° C. When the media was made for future use, SingleQuots were added to cold BEBM. One at a time, the SingleQuots components (except GA-1000) were added to the BEBM media. After removal of each component from the vial, the vial was rinsed with 0.5-1 mL of BEBM (depending on the volume the vial could hold) and added to the bottle of BEBM. Once all components were added, the label that comes with the SingleQuots kit was put on the bottle of media and the date was recorded. The bottle of media was mixed by gentle shaking. The media was not filtered. This media was stored at 4° C., with any leftover media disposed of one month after the date the SingleQuots were added.
(§4) BEAS-2B Cell Splitting Protocol:
(§5) First, Trypsin was warmed to 37° C. in the water bath. The media was then warmed to room temperature by letting it sit in the tissue culture hood, but not as high as 37° C. The media was aspirated from flask(s) and the flask(s) were washed with PBS. From 1 to 1.5 mL of warm trypsin were added to each flask and incubated at 37° C. until cells came off the flask on their own (~8-10 minutes), with no vigorous tapping on the flask to detach the cells.
(§6) Media was added to each flask to a total volume of 8-10 mL per flask and transferred to 15 mL conical tube(s). The cells were spun down at 120 g for 5 minutes, level 5 brake. The cells can be spun down between 100 and 150 g. Next the media was aspirated and the cell pellet was resuspended in fresh media by pipetting up and down and flicking the tube side to side. Any clumps of cells that remained were allowed to settle to the bottom of the tube before the top suspension was transferred into another tube, leaving about 1 mL of media in the original tube. The 1 mL of media and cell clumps were mixed with a single channel p1000 pipette, and any remaining clumps were removed before adding the cells in suspension to the other tube. The suspension was mixed with a pipette, an aliquot was removed, and the cells were counted. The amount of cells/cm^2 desired was calculated and the required volume of cells was added to tissue culture flasks. For example, use of SingleQuots with ~6000 cells/cm^2 was appropriate for a three day incubation and ~3000 cells/cm^2 for a five day incubation. Optimal cell density differed depending on lot of SingleQuots. The flasks were incubated at 37° C. in 5% CO2.
(§7) Day One: Seeding BEAS-2B Cells in Collagen Plates:
(§8) Plate(s) were either seeded with 0.3% or 0% HSA. While the protocol was similar for both conditions any differences are noted herein below. […]

[2] = target: HIS-Keap1 full length / Biotin-Nrf2 (16-mer) (Homo sapiens, UniProt Q14145); experiment: biochemical
Chain of HIS-Keap1 full length / Biotin-Nrf2 (16-mer) (Q14145 whole entry): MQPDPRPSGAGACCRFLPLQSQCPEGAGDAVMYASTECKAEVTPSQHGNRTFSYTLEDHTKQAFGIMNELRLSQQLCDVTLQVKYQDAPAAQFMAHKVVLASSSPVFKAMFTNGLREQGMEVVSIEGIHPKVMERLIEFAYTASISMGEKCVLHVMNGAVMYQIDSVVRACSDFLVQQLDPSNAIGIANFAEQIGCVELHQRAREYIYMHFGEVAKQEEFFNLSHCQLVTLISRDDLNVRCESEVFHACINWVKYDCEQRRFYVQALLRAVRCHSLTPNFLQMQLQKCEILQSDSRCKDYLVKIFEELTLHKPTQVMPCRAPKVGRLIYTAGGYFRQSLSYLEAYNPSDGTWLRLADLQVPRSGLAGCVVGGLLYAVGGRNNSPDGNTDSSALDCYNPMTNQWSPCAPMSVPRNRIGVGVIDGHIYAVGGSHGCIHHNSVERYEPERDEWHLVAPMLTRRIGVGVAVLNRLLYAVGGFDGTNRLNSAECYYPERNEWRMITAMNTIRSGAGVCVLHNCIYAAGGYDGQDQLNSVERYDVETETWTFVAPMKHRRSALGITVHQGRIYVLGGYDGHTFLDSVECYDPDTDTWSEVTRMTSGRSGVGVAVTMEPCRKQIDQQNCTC

[3] = tested on: NQO1 activation in BEAS-2B cells; experiment: BEAS-2B cellular MTT assay of NQO1 activation, 0.3% HSA; assay type: cell-based; conditions: BEAS+ W, read-out: BEAS+ W EC50
Procedure: as §1, §2, §3, §4, §5, §6, §7, §8

[4] = Homo sapiens, serum free, read-out: BEAS EC50 (nM) serum free
[5] = serum free, read-out: BEAS EC50 (nM) serum free
[6] = Homo sapiens, Serum Free W, read-out: BEAS EC50 (nM) Serum Free W
[7] = Serum Free W, read-out: BEAS EC50 (nM) Serum Free W

| Structure (SMILES) | EC50 [1, 4] [nM] | IC50 [2] | also measured |
| --- | --- | --- | --- |
| Cc1c2ccc3c1ncn3CCCCCCc1ccc(cc1)C(=O)N1CCc3ccc(cc3C1)[C@H]2CC(=O)O (single isomer, unassigned) [Compound 385] | 2250 | 238 nM and 244 nM | EC50 [1, 5]: 2850 nM |
| C[C@H](C(=O)O)[C@H]1c2ccc(nc2)OCCCCCc2ccc(cc2)C(=O)N2CCc3ccc1cc3C2 [Compound 60] | – | 580 nM and 614 nM | EC50 [1, 6]: 333 nM; EC50 [1, 7]: 258 nM and 226 nM |
| Cc1cc2ncc1[C@@H]([C@@H](C)C(=O)O)c1ccc3c(c1)CN(CC3)C(=O)c1ccc(cc1)C/C=C/CCO2 [Compound 61] | – | 720 nM and 651 nM | EC50 [1, 6]: 422 nM; EC50 [1, 7]: 245 nM |
| Cc1c2n(C)c3ccc(cc13)CCCCCCn1nnc3c(C)c(cnc31)[C@H](CC(=O)O)c1ccc3c(c1)CN(CC3)C2=O [Compound 68] | – | 0.3 nM | EC50 [1, 6]: 0.4 nM; EC50 [1, 7]: 0.3 nM |
| Cc1cc2cnc1OCC/C=C/Cc1ccc(cc1)C(=O)N1CCc3ccc(cc3C1)[C@@H]2[C@H](C)C(=O)O [Compound 74] | – | 24.4 nM and 36.4 nM | EC50 [1, 6]: 4.7 nM; EC50 [1, 7]: 7.1 nM |
| Cc1cc2cnc1OCCCCCc1ccc(cc1)C(=O)N1CCc3ccc(cc3C1)[C@H]2[C@@H](C)C(=O)O [Compound 76] | – | > 9900 nM | EC50 ([3]; Homo sapiens): > 10000 nM |
| COc1cc2ccc1C(=O)N1CCc3ccc(cc3C1)[C@@H](CC(=O)O)c1cnc3c(nnn3CCCCCC2)c1C [Compound 91] | – | 1.9 nM | EC50 [3]: 155 nM; EC50 ([3]; Homo sapiens): 131 nM |
| COc1cc2ccc1C(=O)N1CCc3ccc(cc3C1)C(CC(=O)O)c1cnc3c(nnn3CCCCCC2)c1C (stereo not shown) [Compound 103] | – | 1.2 nM | EC50 [1, 6]: 22.1 nM; EC50 [1, 7]: 36.8 nM |
| Cc1c2ccc3c1nnn3CCCCCc1ccc(cc1)C(=O)N1CCc3ccc(cc3C1)[C@H]2[C@@H](C)C(=O)O [Compound 130] | – | 0.6 nM and 0.4 nM | EC50 [3]: 0.5 nM and 0.7 nM; EC50 ([3]; Homo sapiens): < 0.5 nM |
| Cc1c2cnc3c1nnn3CCCCCCc1ccc(cc1)C(=O)N1CCc3ccc(cc3C1)[C@@H]2CC(=O)O [Compound 138] | 0.5 | 0.1 nM | EC50 [1, 5]: 0.3 nM |
| Cc1c2ccc3c1nnn3CCCCCCc1ccc(c(F)c1)C(=O)N1CCc3ccc(cc3C1)[C@@H]2[C@H](C)C(=O)O [Compound 142] | – | 11.3 nM and 11.6 nM | EC50 [1, 6]: 34.5 nM; EC50 [1, 7]: 36.1 nM |
| Cc1c2cnc3c1nnn3CCCCCCc1ccc(c(F)c1)C(=O)N1CCc3ccc(cc3C1)C2CC(=O)O (stereo not shown) [Compound 146] | 0.2 | 0.1 nM | – |
| COc1cc2ccc1CCCCCn1nnc3c(C)c(ccc31)C(CC(=O)O)c1ccc3c(c1)CN(CC3)C2=O (stereo not shown) [Compound 190] | – | 4.2 nM and 4.4 nM and 1.1 nM (2×) | EC50 [1, 5]: 1 nM |
| O=C(O)CC1c2ccc(nc2)OCCCCCc2ccc(nc2)C(=O)N2CCc3ccc1cc3C2 (stereo not shown) [Compound 193] | 1140 | 29.1 nM and 31.5 nM | EC50 [1, 5]: 768 nM |
| Cn1c2cc3cc(cnc31)CCCCCCn1nnc3c(Cl)c(ccc31)C(CC(=O)O)c1ccc3c(c1)CN(CC3)C2=O (stereo not shown) [Compound 199] | 12.7 | 3.7 nM and 3.6 nM | EC50 [1, 5]: 11.9 nM |
| Cc1c2ccc3c1nnn3CCCCCc1cnc(nc1)C(=O)N1CCc3ccc(cc3C1)C2CC(=O)O (stereo not shown) [Compound 204] | 2880 | 3 nM and 2.7 nM | EC50 [1, 5]: 3290 nM |
| O=C(O)CC1c2cnc(nc2)OCCCCCc2ccc(c(Cl)c2)C(=O)N2CCc3ccc1cc3C2 (stereo not shown) [Compound 229] | 1430 | 10.4 nM | EC50 [1, 5]: 2230 nM |
| O=C(O)CC1c2ccc3c(c2)CN(CC3)C(=O)c2ccc(cc2F)OCCCCCCn2nnc3c(Cl)c1ccc32 (stereo not shown) [Compound 250] | 16.4 | 2 nM and 1.9 nM | EC50 [1, 5]: 16.5 nM |

| Structure (SMILES) | EC50 [1, 4] [nM] | IC50 [2] | also measured |
| --- | --- | --- | --- |
| O=C(O)CC1c2ccc3c(c2)CN(CC3)C(=O)c2ccc(cc2C(F)(F)F)OCCCCCCn2nnc3cc1ccc32 (stereo not shown) [Compound 308] | 910 | < 0.1 nM | – |
| Cc1c2ccc(c1C)C(=O)N1CCc3ccc(cc3C1)C(CC(=O)O)c1ccc3c(nnn3CCCCCCO2)c1C (stereo not shown) [Compound 309] | 3.2 | < 0.1 nM | – |
| Cc1c2ccc3c1nnn3CCCCCC(F)(F)Oc1ccc(cc1)C(=O)N1CCc3ccc(cc3C1)C2CC(=O)O (stereo not shown) [Compound 311] | 10.4 | 0.1 nM and < 0.1 nM | – |
| Cc1c2ccc(c1C)C(=O)N1CCc3ccc(cc3C1)C(CC(=O)O)c1ccc3c(c1)nnn3CCCCCCO2 (stereo not shown) [Compound 312] | 40.7 | < 0.1 nM | – |
| Cc1c2ccc3c1nnn3CCCCCCCc1ccc(cc1)C(=O)N1CCc3ccc(cc3C1)C2CC(=O)O (stereo not shown) [Compound 313] | 8.8 | < 0.1 nM and 0.4 nM | – |
| O=C(O)CC1c2ccc3c(c2)CN(CC3)C(=O)c2ccc(cn2)OCCCCCCn2nnc3cc1ccc32 (stereo not shown) [Compound 328] | 6710 | 0.9 nM and < 0.1 nM | – |
| Cc1c2ccc3c1nnn3C/C=C/CCCc1ccc(c(F)c1)C(=O)N1CCc3ccc(cc3C1)C2C(C)C(=O)O (stereo not shown) [Compound 375] | – | 1.4 nM | EC50 [1, 6]: 2.9 nM |
| Cc1c2cccc1C(=O)N1CCc3ccc(cc3C1)C(CC(=O)O)c1ccc3c(c1)nnn3C/C=C/CO2 (stereo not shown) [Compound 429] | – | 112 nM and 82.3 nM | – |
| Cc1ccc2cc1OCCCCCn1nnc3cc(ccc31)C(CC(=O)O)c1ccc3c(c1)CN(CC3)C2=O (stereo not shown) [Compound 430] | – | 67.5 nM and 56.1 nM | – |
| Cc1ccc2cc1C(=O)N1CCc3ccc(cc3C1)C(CC(=O)O)c1ccc3c(c1)nnn3CCCCO2 (stereo not shown) [Compound 431] | – | 102 nM and 96.9 nM | – |
| Cc1ccc2cc1C(=O)N1CCc3ccc(cc3C1)C(CC(=O)O)c1ccc3c(c1)nnn3C/C=C/CO2 (stereo not shown) [Compound 432] | – | 93.1 nM and 93.3 nM | – |
| O=C(O)C[C@@H]1c2ccc3c(c2)CN(CC3)C(=O)c2cccc(c2)OCCCCCn2nnc3cc1ccc32 [Compound 433] | – | 287 nM and 204 nM | – |
| O=C(O)C[C@H]1c2ccc3c(c2)CN(CC3)C(=O)c2cccc(c2)OCCCCCn2nnc3cc1ccc32 [Compound 434] | – | 17.8 nM and 55.4 nM | – |
| O=C(O)CC1c2ccc3c(c2)CN(CC3)C(=O)c2cccc(c2)OCCCCn2nnc3ccc1cc32 (stereo not shown) [Compound 435] | – | > 30000 nM | – |
| O=C(O)CC1c2ccc3c(c2)CN(CC3)C(=O)c2cccc(c2)OC/C=C/CCn2nnc3ccc1cc32 (stereo not shown) [Compound 436] | – | 2670 nM and 3410 nM | – |
| O=C(O)CC1c2ccc3c(c2)CN(CC3)C(=O)c2cccc(c2)OC/C=C/CCn2nc3ccc1cc3n2 (stereo not shown) [Compound 437] | – | 219 nM and 234 nM | – |
| O=C(O)CC1c2ccc3c(c2)CN(CC3)C(=O)c2cccc(c2)OC/C=C/CCn2nnc3cc1ccc32 (stereo not shown) [Compound 439] | – | 52.7 nM and 121 nM and 119 nM and 122 nM and 106 nM | – |
| O=C(O)CC1c2ccc3c(c2)CN(CC3)C(=O)c2cccc(c2)OCCCCCn2nnc3cc1ccc32 (stereo not shown) [Compound 440] | – | 64.9 nM and 70.3 nM and 114 nM and 113 nM | – |

— US12692274B2, “Tetrahydroisoquinoline derivatives for the treatment of red blood disorders and inflammatory diseases” (Sanofi, priority 2020, dated 2026)
